pIC50: −log10 of the molar value.
Key:
[1] = test system: human leukemia K562 cells; assay: K562 cell growth inhibition assay (MTS); format: cell-based; settings: 72 h incubation, read-out: Median growth inhibitory concentration (IC50) of K562 cells
Protocol: K562 cells were obtained from American Type Culture Collection (Rockville, Md.). These cells were maintained as suspension cultures in alpha minimum essential medium (αMEM) (Gibco BRL, Burlington, Canada) containing 2 mM L-glutamine and supplemented with 10% fetal calf serum (Invitrogen, Burlington, ON, Canada), 20 mM NaHCO3, 20 mM HEPES (Sigma), 100 units/ml penicillin G, and 100 μg/ml streptomycin at pH 7.4 in an atmosphere of 5% CO2 and 95% air at 37° C. For the measurement of growth inhibition, cells in exponential growth were harvested and seeded at 6000 cells/well in 96-well plates (100 μl/well). Drugs were dissolved in DMSO and added to the wells such that the final concentration of DMSO was 0.5% (v/v). After 72 h incubation, 7 μl of 3-(4,5-dimethylthiazol-2-yl)-5-(3-carboxymethoxyphenyl)-2-(4-sulfophenyl)-2H-tetrazolium (MTS) Cell Titer 96® AQueous One Solution (Promega, Md., WI) was added to each well and incubated for a further 3 h. The absorbance was measured in a Molecular Devices (Menlo Park, Calif.) plate reader. The spectrophotometric 96-well plate cell growth inhibition assay measures the ability of the cells to enzymatically reduce MTS. Three replicates were measured at each drug concentration, and the IC50 values and their SEs for growth inhibition were obtained by fitting the absorbance-drug concentration data to a four-parameter logistic equation.

[2] = test system: K562 cell homogenate; assay: Thioglo-1 fluorescent labeling of sulfhydryl groups, K562 cell homogenate; format: biochemical, human; settings: 50 μM drug, 6×10^5 cells, 37° C., 3 h, 20 mM Tris pH 8.0
Protocol: (§1) The ability of drugs to label sulfhydryl groups of cysteine, glutathione, human serum albumin (HSA) and biomolecules in K562 cells was determined spectrofluorometrically using Thioglo-1, a maleimide reagent that reacts quickly with the sulfhydryl groups to produce highly fluorescent covalent adducts. Drugs that react with sulfhydryl groups block the formation of fluorescent adducts when sulfhydryl reactant is treated with drugs prior to Thioglo-1 treatment. Cysteine (10 μM), glutathione (10 μM), human serum albumin (10 μM), or K562 cell homogenate (6×10^5 cells) in 20 mM Tris pH 8.0, was treated with 1μl of drug (or not) in DMSO at 50 μM reaction concentration at 37° C. for 3 h, followed by the addition of Thioglo-1 (22 μM). The fluorescence was measured in a Fluostar Galaxy (BMG, Durham, N.C.) fluorescence plate reader using an excitation wavelength of 380 nm and an emission wavelength of 520 nm, and the percentage inhibition of fluorescent labeling was obtained using the following equation: % Inhibition=[(1−(Fdrug−Fbackground)/Fdmso]×100, where Fdrug is the fluorescent value for Thioglo-1 treatment of biomolecules pretreated with drug, Fbackground is the fluorescent value for sample containing Thioglo-1 in Tris buffer only, and Fdmso is the fluorescent value for Thioglo-1 treatment of biomolecules pretreated with DMSO solvent only.

[3] = target: T1, human topoisomerase IIα (Homo sapiens, UniProt P11388); assay: Topoisomerase IIα decatenation inhibition assay; format: biochemical; settings: K562 cells nuclear extract, kDNA decatenation
T1 construct: 300 ng K562 cells nuclear extract, the amount that gave 80% decatenation; endogenous in cells; host or cells: K562 cells nuclear extract
T1 sequence (P11388 whole entry): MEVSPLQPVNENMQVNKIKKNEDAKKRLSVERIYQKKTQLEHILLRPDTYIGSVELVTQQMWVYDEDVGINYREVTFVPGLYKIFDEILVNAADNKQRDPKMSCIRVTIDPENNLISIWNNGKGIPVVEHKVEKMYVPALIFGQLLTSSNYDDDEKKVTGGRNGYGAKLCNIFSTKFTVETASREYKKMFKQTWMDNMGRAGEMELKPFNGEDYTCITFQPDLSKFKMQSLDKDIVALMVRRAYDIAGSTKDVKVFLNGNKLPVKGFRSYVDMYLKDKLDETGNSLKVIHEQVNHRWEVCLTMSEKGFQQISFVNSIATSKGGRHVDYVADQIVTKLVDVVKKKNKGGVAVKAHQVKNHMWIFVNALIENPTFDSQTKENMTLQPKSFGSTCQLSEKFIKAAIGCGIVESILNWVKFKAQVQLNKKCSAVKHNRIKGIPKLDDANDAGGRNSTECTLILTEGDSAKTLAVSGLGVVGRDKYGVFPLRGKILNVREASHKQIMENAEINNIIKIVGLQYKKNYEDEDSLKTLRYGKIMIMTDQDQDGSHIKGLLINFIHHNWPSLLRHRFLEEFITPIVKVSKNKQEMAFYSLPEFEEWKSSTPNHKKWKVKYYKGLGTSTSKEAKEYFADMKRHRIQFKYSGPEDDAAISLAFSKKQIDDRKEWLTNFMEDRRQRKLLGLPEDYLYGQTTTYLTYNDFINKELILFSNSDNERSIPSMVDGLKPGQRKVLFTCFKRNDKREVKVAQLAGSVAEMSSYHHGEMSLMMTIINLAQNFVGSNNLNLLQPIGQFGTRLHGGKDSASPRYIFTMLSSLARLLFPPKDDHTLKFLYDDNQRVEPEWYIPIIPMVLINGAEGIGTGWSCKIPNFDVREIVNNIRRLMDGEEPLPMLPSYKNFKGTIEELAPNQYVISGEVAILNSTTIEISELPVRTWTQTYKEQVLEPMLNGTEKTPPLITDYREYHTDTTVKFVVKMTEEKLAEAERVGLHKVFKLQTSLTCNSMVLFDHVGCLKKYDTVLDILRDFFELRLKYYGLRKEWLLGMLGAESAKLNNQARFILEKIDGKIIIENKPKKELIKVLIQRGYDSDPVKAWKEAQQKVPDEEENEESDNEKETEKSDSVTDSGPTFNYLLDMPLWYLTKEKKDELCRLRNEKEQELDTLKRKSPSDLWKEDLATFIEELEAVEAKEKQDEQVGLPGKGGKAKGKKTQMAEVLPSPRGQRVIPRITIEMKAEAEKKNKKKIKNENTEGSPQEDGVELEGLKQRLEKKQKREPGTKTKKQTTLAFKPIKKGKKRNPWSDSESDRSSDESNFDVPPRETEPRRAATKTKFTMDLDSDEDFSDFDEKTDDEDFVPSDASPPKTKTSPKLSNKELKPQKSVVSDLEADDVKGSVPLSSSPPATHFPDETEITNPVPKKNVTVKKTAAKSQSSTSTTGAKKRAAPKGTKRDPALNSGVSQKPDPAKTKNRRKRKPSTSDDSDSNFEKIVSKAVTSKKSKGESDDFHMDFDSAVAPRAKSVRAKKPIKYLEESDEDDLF
Protocol: The catalytic inhibition of human topoisomerase IIα by a drug was measured by the ATP-dependent decatenation of kDNA (Topogen, Columbus, Ohio) into minicircles of DNA as we previously described (Hasinoff 1995 QSAR ICRF-187). The 20 μl reaction mixture contained 0.5 mM ATP, 50 mM Tris-HCl (pH 8.0), 120 mM KCl, 10 mM MgCl2, 30 μg/ml bovine serum albumin, 40 ng kDNA, drug or DMSO (0.5 μl) and 300 ng K562 cells nuclear extract, the amount that gave 80% decatenation. The enzymatic reaction was carried out at 37° C. and was terminated by the addition of 6 μl of buffer containing 5 mM Tris pH 8.0, 30% w/v sucrose, 0.5% bromophenol blue, and 125 mM EDTA. The resulting mixture was separated by electrophoresis (2 h at 8 V/cm) on an agarose gel prepared from 1.2% w/v agarose and 0.5 μg/ml ethidium bromide in TAE buffer pH 8.0 (40 mM Tris base, 0.114% (v/v) glacial acetic acid, 2 mM EDTA). The DNA in the gel was imaged by its fluorescence on an Alpha Annotech Fluorchem 8900 imaging system equipped with a 365 nm illuminator and a CCD camera. Densitometry scanning of gel photographs was used to obtain the fluorescence intensity of the band corresponding to the DNA minicircles. The percentage inhibition of K562 topoisomerase II catalytic activity at concentrations of 3 and 30 μM was determined using the following equation: % Inhibition=[(1−(Bdrug−Bbackground)/Bdmso]×100, where Bdrug is the band intensity value for the enzymatic reaction sample treated with drug, Bbackground is the band intensity value for sample without the enzyme, and Bdmso is the band intensity value for the enzymatic reaction sample treated with DMSO solvent only.

[4] = target: T2, human serum albumin (HSA) (Homo sapiens, UniProt P02768); assay: ESI-MS study on covalent labeling of sulfhydryl group of HSA; format: binding; settings: drug with 65 μM HSA, Tris pH 7.5, 5 h, room temperature
T2 sequence (P02768 25-609): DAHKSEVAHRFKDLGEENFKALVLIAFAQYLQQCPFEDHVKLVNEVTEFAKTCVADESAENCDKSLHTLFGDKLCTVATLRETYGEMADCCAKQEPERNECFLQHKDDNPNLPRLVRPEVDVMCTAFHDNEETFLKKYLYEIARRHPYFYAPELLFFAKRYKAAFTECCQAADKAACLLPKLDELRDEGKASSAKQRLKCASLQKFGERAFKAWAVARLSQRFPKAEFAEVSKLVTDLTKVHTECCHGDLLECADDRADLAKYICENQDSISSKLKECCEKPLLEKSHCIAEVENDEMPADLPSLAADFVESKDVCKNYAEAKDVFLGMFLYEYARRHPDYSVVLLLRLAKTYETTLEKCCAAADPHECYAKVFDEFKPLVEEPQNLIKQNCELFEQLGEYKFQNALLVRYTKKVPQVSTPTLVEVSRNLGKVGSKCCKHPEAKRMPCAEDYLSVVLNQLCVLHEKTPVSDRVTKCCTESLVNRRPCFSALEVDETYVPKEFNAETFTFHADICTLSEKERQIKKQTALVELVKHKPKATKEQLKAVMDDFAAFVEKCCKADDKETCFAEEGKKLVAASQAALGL
Protocol: The MS drug-HSA protein binding studies were carried out using an Applied Biosystems API 2000 Triple Quadrupole mass spectrometer (Thornhill, Canada) equipped with a syringe pump (Harvade Apparatus, Holliston, Mass.) at a flow rate of 5-10 μl/min. The Analyst software (version 1.4) was used for system control and data acquisition. The ESI source was operated in the positive ion mode with an electrospray voltage of +4.4 kV without capillary heating. MagTran freeware (version 1.02, http://www.geocities.com/SiliconValley/Hills/2679/magtran.html) was used for charge state deconvolution of HSA and drug-HSA covalent adducts.
The reaction of drug and HSA was carried out by mixing drug (or not) in DMSO (11μl, 6 mM) with HSA in 16 mM Tris pH 7.5 buffer (1 ml, 65 μM) for 5 h at room temperature. The reaction mixture was then dialyzed using a dialysis membrane with a 10,000 Da cutoff. The dialyzed mixture (150 μl) was diluted with a solution mixture of water (124 μl), methanol (76 μl), and formic acid (17 μl, 6% v/v). Scanning was 1000-1800 m/z units every 4 s with a step size of 0.10 amu.

[5] = target: T2, human serum albumin (HSA); assay: Thioglo-1 fluorescent labeling of sulfhydryl groups, human serum albumin; format: biochemical; settings: 50 μM drug, HSA 10 μM, 37° C., 3 h, 20 mM Tris pH 8.0
Protocol: as §1

[6] = Thioglo-1 fluorescent labeling of sulfhydryl groups, cysteine; settings: 50 μM drug, 37° C., 3 h, 20 mM Tris pH 8.0
Protocol: as §1

[7] = Thioglo-1 fluorescent labeling of sulfhydryl groups, glutathione; settings: 50 μM drug, 37° C., 3 h, 20 mM Tris pH 8.0
Protocol: as §1

pIC50 [1]: 6.15
% Inhibition of topoisomerase II catalytic activity ([3]; 3 μM): 100%
% Inhibition of topoisomerase II catalytic activity ([3]; 30 μM): 100%
Covalent labeling of HSA (ESI-MS peak description) [4]: Covalent adduct of HSA and Compound 9
% Inhibition of Thioglo-1 fluorescent labeling of Human serum albumin [5]: 85%
Compound: [O-][S+]1CCON=C1c1cc2ccccc2s1 (centres unmarked) [CMPD #9]
% Inhibition of Thioglo-1 fluorescent labeling of K562 Cell homogenate [2]: 95%
% Inhibition of Thioglo-1 fluorescent labeling of 10 μM Cysteine [6]: 100%
% Inhibition of Thioglo-1 fluorescent labeling of 10 μM Glutathione [7]: 100%

Reference: US20120142676A1, “Oxathiazine and dithiine oxides as inhibitors of sulfhydryl-dependent biomolecules” (priority 2010, published 2012)
